This is an account of results in publication PMC5218480 (PLoS ONE, 2017).

The experiment has as its system MV-4-11 cells. The experiment can be described thus: Gene expression microarray analysis (Affymetrix PrimeView) and GSEA. In kind it is cell-based, human. On the set-up: RFU PODN (11730768_x_at) / Fold change /veh PODN (11730768_x_at) / RFU LINC00158 (11744669_a_at) / Fold change /veh LINC00158 (11744669_a_at) / RFU DUSP10 (11751237_a_at) / Fold change /veh DUSP10 (11751237_a_at) / RFU ID3 (11757404_x_at) / Fold change /veh ID3 (11757404_x_at) / RFU PLEKHG5 (11737974_s_at) / Fold change /veh PLEKHG5 (11737974_s_at) / RFU LRRC4B (11730491_at) / Fold change /veh LRRC4B (11730491_at) / RFU GIMAP4 (11747438_a_at) / Fold change /veh GIMAP4 (11747438_a_at) / RFU KRT8 (11758183_x_at) / Fold change /veh KRT8 (11758183_x_at) / RFU CNN1 (11734310_a_at) / Fold change /veh CNN1 (11734310_a_at) / RFU VPS37D (11726825_at) / Fold change /veh VPS37D (11726825_at) / RFU C10orf10 (11716522_x_at) / Fold change /veh C10orf10 (11716522_x_at) / RFU KIR2DL2 /// KIR2DL4 /// KIR2DL5A /// KIR2DL5B /// KIR2DS1 /// KIR2DS2 /// KIR2DS3 /// KIR2DS4 /// KIR3DL3 /// KIR3DL3 /// KIR3DS1 (11738374_at) / Fold change /veh KIR2DL2 /// KIR2DL4 /// KIR2DL5A /// KIR2DL5B /// KIR2DS1 /// KIR2DS2 /// KIR2DS3 /// KIR2DS4 /// KIR3DL3 /// KIR3DL3 /// KIR3DS1 (11738374_at) / RFU C1QL1 (11718748_at) / Fold change /veh C1QL1 (11718748_at) / RFU TMPRSS4 (11747572_a_at) / Fold change /veh TMPRSS4 (11747572_a_at) / RFU HAMP (11756126_x_at) / Fold change /veh HAMP (11756126_x_at) / RFU RNFT2 (11725882_a_at) / Fold change /veh RNFT2 (11725882_a_at) / RFU NR4A2 (11747474_a_at) / Fold change /veh NR4A2 (11747474_a_at) / RFU ABCC12 (11746883_a_at) / Fold change /veh ABCC12 (11746883_a_at) / RFU TMEM136 (11760407_x_at) / Fold change /veh TMEM136 (11760407_x_at) / RFU CLDN22 /// WWC2 (11732394_at) / Fold change /veh CLDN22 /// WWC2 (11732394_at) / RFU HLA-DPB1 (11760878_x_at) / Fold change /veh HLA-DPB1 (11760878_x_at) / RFU SPINT1 (11716480_a_at) / Fold change /veh SPINT1 (11716480_a_at) / RFU GAP43 (11754022_s_at) / Fold change /veh GAP43 (11754022_s_at) / RFU A4GNT (11735810_at) / Fold change /veh A4GNT (11735810_at) / RFU PRB3 (11715151_x_at) / Fold change /veh PRB3 (11715151_x_at) / RFU TUBB4B (11761932_at) / Fold change /veh TUBB4B (11761932_at) / RFU CAPN14 (11732068_a_at) / Fold change /veh CAPN14 (11732068_a_at) / RFU TMCC2 (11721928_a_at) / Fold change /veh TMCC2 (11721928_a_at) / RFU IRGQ (11745062_a_at) / Fold change /veh IRGQ (11745062_a_at) / RFU FAM174B (11720279_a_at) / Fold change /veh FAM174B (11720279_a_at) / RFU TMPRSS4 (11748680_a_at) / Fold change /veh TMPRSS4 (11748680_a_at) / RFU FAM212B (11763350_a_at) / Fold change /veh FAM212B (11763350_a_at) / RFU PLEKHG5 (11743358_a_at) / Fold change /veh PLEKHG5 (11743358_a_at) / RFU ZSCAN30 (11745921_a_at) / Fold change /veh ZSCAN30 (11745921_a_at) / RFU CMKLR1 (11741424_a_at) / Fold change /veh CMKLR1 (11741424_a_at) / RFU LOC101060620 /// MAPK8IP1 (11723275_at) / Fold change /veh LOC101060620 /// MAPK8IP1 (11723275_at) / RFU SPTSSB (11747773_x_at) / Fold change /veh SPTSSB (11747773_x_at) / RFU PRSS12 (11739890_at) / Fold change /veh PRSS12 (11739890_at) / RFU BIN1 (11741810_x_at) / Fold change /veh BIN1 (11741810_x_at) / RFU WNT11 (11732464_a_at) / Fold change /veh WNT11 (11732464_a_at) / RFU C10orf10 (11716521_a_at) / Fold change /veh C10orf10 (11716521_a_at) / RFU C5orf56 (11738089_at) / Fold change /veh C5orf56 (11738089_at) / RFU CYB561 (11721691_x_at) / Fold change /veh CYB561 (11721691_x_at) / RFU ANKRD19P (11752326_a_at) / Fold change /veh ANKRD19P (11752326_a_at) / RFU OR2T12 /// OR2T33 /// OR2T8 (11738714_s_at) / Fold change /veh OR2T12 /// OR2T33 /// OR2T8 (11738714_s_at) / RFU VCAN (11748164_a_at) / Fold change /veh VCAN (11748164_a_at) / RFU JSRP1 (11732532_at) / Fold change /veh JSRP1 (11732532_at) / RFU KRTAP10-11 (11738290_x_at) / Fold change /veh KRTAP10-11 (11738290_x_at) / RFU MYO3A (11730013_a_at) / Fold change /veh MYO3A (11730013_a_at) / RFU EBF3 (11725865_a_at) / Fold change /veh EBF3 (11725865_a_at) / RFU CAMK2N1 (11719241_x_at) / Fold change /veh CAMK2N1 (11719241_x_at) / RFU C5orf56 (11738088_a_at) / Fold change /veh C5orf56 (11738088_a_at) / RFU OLFML3 (11715873_a_at) / Fold change /veh OLFML3 (11715873_a_at) / RFU LOC100653217 /// NTM (11731650_a_at) / Fold change /veh LOC100653217 /// NTM (11731650_a_at) / RFU MAPK11 (11762145_a_at) / Fold change /veh MAPK11 (11762145_a_at) / RFU FIZ1 (11724087_x_at) / Fold change /veh FIZ1 (11724087_x_at) / RFU OASL (11726364_x_at) / Fold change /veh OASL (11726364_x_at) / RFU SOX15 (11748057_x_at) / Fold change /veh SOX15 (11748057_x_at) / RFU CD79A (11719716_a_at) / Fold change /veh CD79A (11719716_a_at) / RFU HIST1H1D (11736915_at) / Fold change /veh HIST1H1D (11736915_at) / RFU CASKIN2 (11723855_a_at) / Fold change /veh CASKIN2 (11723855_a_at) / RFU LOC730098 (11760151_x_at) / Fold change /veh LOC730098 (11760151_x_at) / RFU OR4N2 (11742367_at) / Fold change /veh OR4N2 (11742367_at) / RFU PRRT2 (11749266_a_at) / Fold change /veh PRRT2 (11749266_a_at) / RFU SNX32 (11753110_a_at) / Fold change /veh SNX32 (11753110_a_at) / RFU CDHR5 (11726645_a_at) / Fold change /veh CDHR5 (11726645_a_at) / RFU RCAN1 (11760418_a_at) / Fold change /veh RCAN1 (11760418_a_at) / RFU FAM167A (11723789_a_at) / Fold change /veh FAM167A (11723789_a_at) / RFU FAM26E (11764081_at) / Fold change /veh FAM26E (11764081_at) / RFU ISYNA1 (11749810_s_at) / Fold change /veh ISYNA1 (11749810_s_at) / RFU ACY1 (11761880_at) / Fold change /veh ACY1 (11761880_at) / RFU 11764098_at / Fold change /veh 11764098_at / RFU SAMD14 (11745864_x_at) / Fold change /veh SAMD14 (11745864_x_at) / RFU NPB (11741838_a_at) / Fold change /veh NPB (11741838_a_at) / RFU TMPRSS6 (11731388_a_at) / Fold change /veh TMPRSS6 (11731388_a_at) / RFU KRTAP10-2 (11738614_at) / Fold change /veh KRTAP10-2 (11738614_at) / RFU ARHGAP8 /// PRR5-ARHGAP8 (11727945_x_at) / Fold change /veh ARHGAP8 /// PRR5-ARHGAP8 (11727945_x_at) / RFU KRTAP5-7 /// NADSYN1 (11734609_at) / Fold change /veh KRTAP5-7 /// NADSYN1 (11734609_at) / RFU RASL12 (11751679_a_at) / Fold change /veh RASL12 (11751679_a_at) / RFU CDKN2B (11736163_a_at) / Fold change /veh CDKN2B (11736163_a_at) / RFU PRF1 (11729649_at) / Fold change /veh PRF1 (11729649_at) / RFU, ZNF638 /// ZNF638-IT1 / Fold change vs veh, ZNF638 /// ZNF638-IT1 / RFU, PANK3 / Fold change vs veh, PANK3 / RFU, SH3YL1 / Fold change vs veh, SH3YL1 / RFU, ZEB2 / Fold change vs veh, ZEB2 / RFU, NRIP1 / Fold change vs veh, NRIP1 / RFU, PTTG1IP / Fold change vs veh, PTTG1IP / RFU, CAPN2 / Fold change vs veh, CAPN2 / RFU, MED14 / Fold change vs veh, MED14 / RFU, SNORA58 / Fold change vs veh, SNORA58 / RFU, C1orf63 / Fold change vs veh, C1orf63 / RFU, LRRFIP1 / Fold change vs veh, LRRFIP1 / RFU, NDUFAF7 / Fold change vs veh, NDUFAF7 / RFU, SLC12A2 / Fold change vs veh, SLC12A2 / RFU, IBTK / Fold change vs veh, IBTK / RFU, ESF1 / Fold change vs veh, ESF1 / Fold change vs veh, TMEM50B / RFU, TAOK1 / Fold change vs veh, TAOK1 / RFU, ACBD3 / Fold change vs veh, ACBD3 / RFU, TMA16 / Fold change vs veh, TMA16 / RFU, RWDD3 / Fold change vs veh, RWDD3 / RFU, BCAT1 / Fold change vs veh, BCAT1 / RFU, EDEM3 / Fold change vs veh, EDEM3 / RFU, TMEM33 / Fold change vs veh, TMEM33 / RFU, WDR75 / Fold change vs veh, WDR75 / RFU, AHCTF1 / Fold change vs veh, AHCTF1 / RFU, TFRC / Fold change vs veh, TFRC / RFU, ZDHHC17 / Fold change vs veh, ZDHHC17 / RFU, NOM1 / Fold change vs veh, NOM1 / RFU, ARL8B / Fold change vs veh, ARL8B / RFU, ZBTB11 / Fold change vs veh, ZBTB11 / RFU, TAMM41 / Fold change vs veh, TAMM41 / RFU, KIAA1704 /// LOC100996395 / Fold change vs veh, KIAA1704 /// LOC100996395 / RFU, ING1 / Fold change vs veh, ING1 / RFU, TRMT61B / Fold change vs veh, TRMT61B / RFU, FUBP3 / Fold change vs veh, FUBP3 / RFU, TP53 / Fold change vs veh, TP53 / RFU, TNKS2 / Fold change vs veh, TNKS2 / RFU, ZFP14 / Fold change vs veh, ZFP14 / RFU, ACTR2 / Fold change vs veh, ACTR2 / RFU, PPP3R1 / Fold change vs veh, PPP3R1 / RFU, PIK3R1 / Fold change vs veh, PIK3R1 / RFU, HNRNPA1 / Fold change vs veh, HNRNPA1 / RFU, RNF170 / Fold change vs veh, RNF170 / RFU, ZNF28 / Fold change vs veh, ZNF28 / RFU, RNGTT / Fold change vs veh, RNGTT / RFU, OGT / Fold change vs veh, OGT / RFU, BRD1 / Fold change vs veh, BRD1 / RFU, MARS / Fold change vs veh, MARS / RFU, ZNF655 / Fold change vs veh, ZNF655 / RFU, FAHD1 / Fold change vs veh, FAHD1 / RFU, BDP1 / Fold change vs veh, BDP1 / RFU, LRRCC1 / Fold change vs veh, LRRCC1 / RFU, ARID1A / Fold change vs veh, ARID1A / RFU, ZNF146 / Fold change vs veh, ZNF146 / RFU, ZNF330 / Fold change vs veh, ZNF330 / RFU, GPN3 / Fold change vs veh, GPN3 / RFU, C9orf123 / Fold change vs veh, C9orf123 / RFU, N4BP2L2 / Fold change vs veh, N4BP2L2 / RFU, ARFIP1 / Fold change vs veh, ARFIP1 / RFU, FAM179B / Fold change vs veh, FAM179B / RFU, BCL10 / Fold change vs veh, BCL10 / RFU, UHRF1BP1L / Fold change vs veh, UHRF1BP1L / RFU, BET1 / Fold change vs veh, BET1 / RFU, CNOT2 / Fold change vs veh, CNOT2 / RFU, ZNF268 / Fold change vs veh, ZNF268 / Fold change vs veh, ZNF507 / RFU, DGCR2 / Fold change vs veh, DGCR2 / RFU, WDSUB1 / Fold change vs veh, WDSUB1 / Fold change vs veh, HSP90B1 /// MIR3652 / RFU, ADSS / Fold change vs veh, ADSS / RFU, GK / Fold change vs veh, GK / RFU, ZNF148 / Fold change vs veh, ZNF148 / RFU, TAF9 / Fold change vs veh, TAF9 / RFU, SLC1A5 / Fold change vs veh, SLC1A5 / RFU, SLMO2 / Fold change vs veh, SLMO2 / RFU, ABCC4 / Fold change vs veh, ABCC4 / RFU, LOC101060439 /// RAP1B / Fold change vs veh, LOC101060439 /// RAP1B / RFU, RFX7 / Fold change vs veh, RFX7 / RFU, GTPBP10 / Fold change vs veh, GTPBP10 / RFU, CNEP1R1 / Fold change vs veh, CNEP1R1 / RFU, BIVM-ERCC5 /// ERCC5 / Fold change vs veh, BIVM-ERCC5 /// ERCC5 / RFU, ILF3 / Fold change vs veh, ILF3 / RFU 11762660_at / Fold change /veh 11762660_at / RFU VCAN (11757783_s_at) / Fold change /veh VCAN (11757783_s_at) / RFU DDX43 (11728927_at) / Fold change /veh DDX43 (11728927_at) / RFU KRT8 (11758188_x_at) / Fold change /veh KRT8 (11758188_x_at) / RFU NKD1 (11759106_at) / Fold change /veh NKD1 (11759106_at) / RFU SRD5A1 (11742802_a_at) / Fold change /veh SRD5A1 (11742802_a_at) / RFU TPSAB1 /// TPSB2 (11721975_s_at) / Fold change /veh TPSAB1 /// TPSB2 (11721975_s_at) / RFU GSTM3 (11746129_a_at) / Fold change /veh GSTM3 (11746129_a_at) / RFU IL23R (11737362_x_at) / Fold change /veh IL23R (11737362_x_at) / RFU TMEM51 (11727254_a_at) / Fold change /veh TMEM51 (11727254_a_at) / RFU PIWIL2 (11732686_x_at) / Fold change /veh PIWIL2 (11732686_x_at) / RFU ORM1 (11744905_x_at) / Fold change /veh ORM1 (11744905_x_at) / RFU CCDC152 (11743942_at) / Fold change /veh CCDC152 (11743942_at) / RFU ECM1 (11717891_a_at) / Fold change /veh ECM1 (11717891_a_at) / RFU IL23R (11748794_a_at) / Fold change /veh IL23R (11748794_a_at) / RFU TNFAIP8L3 (11732012_x_at) / Fold change /veh TNFAIP8L3 (11732012_x_at) / RFU MBOAT4 (11741988_at) / Fold change /veh MBOAT4 (11741988_at) / RFU 11764193_at / Fold change /veh 11764193_at / RFU TMEM53 (11763286_at) / Fold change /veh TMEM53 (11763286_at) / RFU MAGEB2 (11727129_at) / Fold change /veh MAGEB2 (11727129_at) / RFU TMEM200A (11744735_a_at) / Fold change /veh TMEM200A (11744735_a_at) / RFU CCDC152 (11751479_a_at) / Fold change /veh CCDC152 (11751479_a_at) / RFU FAM211A (11726209_a_at) / Fold change /veh FAM211A (11726209_a_at) / RFU RGS16 (11746705_a_at) / Fold change /veh RGS16 (11746705_a_at) / RFU VCAN (11755009_s_at) / Fold change /veh VCAN (11755009_s_at) / RFU RHOB (11743442_s_at) / Fold change /veh RHOB (11743442_s_at) / RFU RGS16 (11720943_a_at) / Fold change /veh RGS16 (11720943_a_at) / RFU RGS16 (11720944_at) / Fold change /veh RGS16 (11720944_at) / RFU, VPS4B / Fold change vs veh, VPS4B / RFU, CREB1 / Fold change vs veh, CREB1 / RFU, DNAJC13 / Fold change vs veh, DNAJC13 / RFU, GNAQ / Fold change vs veh, GNAQ / RFU, CDK5R1 / Fold change vs veh, CDK5R1 / RFU, ZRANB3 / Fold change vs veh, ZRANB3 / RFU, CUL4A / Fold change vs veh, CUL4A / RFU, CCNY / Fold change vs veh, CCNY / RFU, UFL1 / Fold change vs veh, UFL1 / RFU, COG3 / Fold change vs veh, COG3 / RFU, DIAPH2 / Fold change vs veh, DIAPH2 / RFU, SKA2 / Fold change vs veh, SKA2 / RFU, AFF3 / Fold change vs veh, AFF3 / RFU, LMF1 / Fold change vs veh, LMF1 / RFU, IPO11 / Fold change vs veh, IPO11 / RFU, DFFB / Fold change vs veh, DFFB / RFU, FOXP1 / Fold change vs veh, FOXP1 / RFU, CARD8 / Fold change vs veh, CARD8 / RFU, STRN3 / Fold change vs veh, STRN3 / RFU, ADK / Fold change vs veh, ADK / RFU, RASSF2 / Fold change vs veh, RASSF2 / RFU, WIPF1 / Fold change vs veh, WIPF1 / RFU, LARP1B / Fold change vs veh, LARP1B / RFU, RASA1 / Fold change vs veh, RASA1 / RFU, RB1 / Fold change vs veh, RB1 / RFU, PPFIA1 / Fold change vs veh, PPFIA1 / RFU, MAT2A / Fold change vs veh, MAT2A / RFU, CCT5 / Fold change vs veh, CCT5 / RFU, WDR92 / Fold change vs veh, WDR92 / RFU, CUX1 / Fold change vs veh, CUX1 / RFU, TTC7A / Fold change vs veh, TTC7A / RFU, TMEM135 / Fold change vs veh, TMEM135 / RFU, DEPTOR / Fold change vs veh, DEPTOR / RFU, CPM / Fold change vs veh, CPM / RFU, DNAJB6 / Fold change vs veh, DNAJB6 / RFU, CACNA2D3 / Fold change vs veh, CACNA2D3 / RFU, DTX4 / Fold change vs veh, DTX4 / RFU, TFCP2 / Fold change vs veh, TFCP2 / RFU, GMCL1 /// GMCL1P1 / Fold change vs veh, GMCL1 /// GMCL1P1 / RFU, AEBP2 / Fold change vs veh, AEBP2 / RFU, SNHG1 /// SNORD22 /// SNORD25 /// SNORD26 /// SNORD27 /// SNORD28 /// SNORD29 /// SNORD31 / Fold change vs veh, SNHG1 /// SNORD22 /// SNORD25 /// SNORD26 /// SNORD27 /// SNORD28 /// SNORD29 /// SNORD31 / Fold change (Aza/veh), C12orf56 (ProbeSet 11735607_a_at) / Fold change (ACY-1035/veh), C12orf56 (ProbeSet 11735607_a_at) / Fold change (Aza/veh), FGFR1OP (ProbeSet 11751329_s_at) / Fold change (ACY-1035/veh), FGFR1OP (ProbeSet 11751329_s_at) / Fold change (Aza/veh), VPS36 (ProbeSet 11739960_a_at) / Fold change (ACY-1035/veh), VPS36 (ProbeSet 11739960_a_at) / RFU SYPL1 (11715823_x_at) / Fold change /veh SYPL1 (11715823_x_at) / RFU IGFBP7 (11715501_s_at) / Fold change /veh IGFBP7 (11715501_s_at) / RFU REEP3 (11722064_at) / Fold change /veh REEP3 (11722064_at) / RFU IGLL1 (11728026_x_at) / Fold change /veh IGLL1 (11728026_x_at): dose or concentration left out as unconfirmed. As to conditions: ProbeSet 11745260_x_at; LIST B.

On to `Nc1ccc(-c2cccs2)cc1NC(=O)c1ccc2c(c1)cc(C1CC1)n2CCN1CCOCC1` [ACY-1035], for which the “RFU, SLC12A2” value came to 27.90 RFU.
